Data reported in US10435396B2, “2-substituted indazoles, methods for producing same, pharmaceutical preparations that contain same, and use of same to produce drugs” (Bayer Pharma Aktiengesellschaft, priority 2016, dated 2019).
Where two headings read alike, the source gives them in different places.

Experiments:
Assay type in all cases: cell-based, human
[1] = tested on: secretion of TNF-α in THP-1 cells; assay: TNF-α secretion in THP-1 cells (LPS-triggered); settings: LPS 0.05 μg/ml, read-out: IC50 with respect to the secretion of TNF-α in THP-1 cells
Description: TNF-α Secretion in THP-1 Cells
With the aid of this test, it is possible to test substances for their ability to inhibit secretion of TNF-α (tumour necrosis factor alpha) in THP-1 cells (human monocytic acute leukaemia cell line). TNF-α is a cytokine involved in inflammatory processes. In this test, TNF-α secretion is triggered by incubation with bacterial lipopolysaccharide (LPS).
THP-1 cells are kept in continuous suspension cell culture [RPMI 1460 medium with L-Glutamax (Gibco, Cat No. 61870-044) supplemented with foetal calf serum (FCS) 10% (Invitrogen, Cat No. 10082-147), 1% penicillin/streptomycin (Gibco BRL, Cat No. 15140-114)] and should not exceed a cell concentration of 1×10^6 cells/ml. The assay is carried out in cell culture medium (RPMI 1460 medium with L-Glutamax supplemented with FCS 10%).
In each case 2-2.5 μl of the cell suspension (corresponds to 4000 cells) per well were dispensed into a 384-well test plate (Greiner, Cat No. 784076), in each of which 40-50 nl substance had been dissolved in 100% DMSO. This was done using […] in the range from 20 μM to 0.073 nM for each substance. The cells were incubated at room temperature for 15 min. 2-2.5 μl of 0.1 μg/ml LPS (Sigma, Escherichia coli 055:B5, Cat. No. L5418) dissolved in cell culture medium (final concentration 0.05 μg/ml) were then dispensed into each well. As neutral control, cells were treated with 0.05 μg/ml LPS and 1% DMSO and, as inhibitor control, with 1% DMSO only.
The plates were centrifuged at 80 g for 30 s and incubated at 37° C., 5% CO2 and 95% atmospheric humidity for 17 h. The amount of TNF-α was determined using the TNF-alpha HTRF Detection Kit (Cisbio, Cat No. 62TNFPEB/C). To this end, 2 μl of the detection solution in each case, consisting of anti-TNF-α-XL665 conjugate and anti-TNF-α-cryptate conjugate dissolved in the reconstitution buffer in accordance with the manufacturer's instructions, were added for the HTRF (Homogeneous Time-Resolved Fluorescence) test. After the addition, the mixture was incubated either at room temperature for 3 h or at 4° C. overnight. The signals were then read at 620/665 nm using an HTRF-enabled measuring instrument such as the BMG PheraStar.
The activity of the substances is expressed as the ratio between neutral and inhibitor control in percent. The IC50 values were calculated using a 4-parameter fit.

TMD-8 cells = assay: Cell proliferation measurement in TMD-8 cells; settings: Cell Titer Glo, read-out: IC50 with respect to proliferation inhibition in TMD-8 cells
Description: Cell Proliferation Measurement The antiproliferative activity of the inventive compounds of the general formula (I) was examined in vitro in human ABC-DLBCL cells (see Table 3). For this purpose 4000 TMD-8 cells (both from ATCC) at 30 μl/cavity in growth medium (RPMI (Biochrom: FG 1215), 20% FCS (Biochrom: S 0615)) were transferred into a 384-cavity plate (Perkin Elmer, white) and incubated at 37° C. overnight. After 24 h, cells on one plate (0 h plate) were treated with 30 μl/cavity of CTG solution (Promega Cell Titer Glo (catalogue # […] and […])) and incubated at room temperature for 10 min, and luminescence was measured by means of a VICTOR V (Perkin Elmer), in order to determine cell viability on commencement of treatment. The cells on the test plate were treated with the inventive compounds of the general formula (I) and incubated at 37° C. for 72 h. The compounds were added to the cells in a 7-stage, 3-fold dilution series using an HP D300 digital dispenser. As control, the cells were treated with vehicle (DMSO). After 72 h, the cells were treated with 30 μl/cavity of CTG solution (Promega Cell Titer Glo (catalogue # […] and […])) and incubated at room temperature for 10 min, and luminescence was measured by means of a VICTOR V (Perkin Elmer), in order to determine cell viability at the end of treatment. The percentage effect on cell growth and the IC50 derived therefrom were determined for each test substance using the values from the 0 h plate (=maximum inhibition) and the DMSO control (=minimum inhibition). The IC50 values were calculated using a 4-parameter fit.

[2] = tested on: NF-kB activity in TMD-8-NF-kB-luc cells; assay: NF-kB reporter assay; settings: 6 h, One-Glo, read-out: IC50 with respect to the inhibition of NF-kB activity in TMD-8-NF-kB-luc cells
Description: NF-kB Reporter Assay The effect of the inventive compounds of the general formula (I) on the NF-kB signalling pathway was examined in vitro in human DLBCL cells (see Table 4). 10 000 TMD-8-NF-kB-luc reporter cells at 30 μl/cavity in growth medium (RPMI (Biochrom: FG 1215), 20% FCS (Biochrom: S 0615)) were transferred into a 384-cavity plate (Perkin Elmer, white) and incubated at 37° C. overnight. After 24 h, the cells were treated with the test substances and incubated at 37° C. for 6 h. The test substances were added to the cells in a 7-stage, 3-fold dilution series using an HP D300 digital dispenser. As control, the cells were treated with the vehicle (DMSO). After 6 h, the cells were treated with 30 μl/well One-Glo solution (Promega, E6110) and incubated at room temperature for 10 min, and the luminescence was measured using a VICTOR V (Perkin Elmer) in order to determine the NF-kB reporter activity at the end of the treatment. The percentage effect of the NF-kB reporter activity and the IC50 derived therefrom were determined for each test substance with the aid of the values for an NF-kB pathway inhibitor (I-kappa B kinase inhibitor) (−)-7-[2-(cyclopropylmethoxy)-6-hydroxyphenyl]-5-[(3S)-3-piperidinyl]-1,4-dihydro-2H-pyrido[2,3-d][1,3]oxazin-2-one (CAS Number 600734-02-9; see WO 2003076447) (=maximum inhibition) and the DMSO control (=minimum inhibition). The IC50 values were calculated using a 4-parameter fit.

Row | SMILES | IC50 ([1]; Homo sapiens, THP-1, 17 h) | IC50 ([2]; Homo sapiens) | IC50 ([1]; 17 h) | IC50 [2] | IC50 (TMD-8 cells; Homo sapiens, TMD8, 72 h) | IC50 (TMD-8 cells; 72 h)
1 | COc1cc2nn(C3CCN(C4COC4)CC3)cc2cc1NC(=O)c1cccc(C(F)(F)F)n1 [Example 10, N-{6-Methoxy-2-[1-(oxetan-3-yl)piperidin-4-yl]-2H-indazol-5-yl}-6-(trifluoromethyl)pyridine-2-carboxamide] | 0.17 µM | 28.9 µM | – | – | 23.3 µM | –
2 | COc1cc2nn(C3CCOCC3)cc2cc1NC(=O)c1cccc(C(C)(C)O)n1 [Example 28, 6-(2-Hydroxypropan-2-yl)-N-[6-methoxy-2-(tetrahydro-2H-pyran-4-yl)-2H-indazol-5-yl]pyridine-2-carboxamide] | 0.41 µM | 2.68 µM | – | – | 3.51 µM | –
3 | COc1cc2nn(C3CCNCC3)cc2cc1NC(=O)c1cccc(C(F)(F)F)n1 [Example 2, N-[6-Methoxy-2-(piperidin-4-yl)-2H-indazol-5-yl]-6-(trifluoromethyl)pyridine-2-carboxamide] | 0.13 µM | 9.45 µM | – | – | 8.61 µM | –
4 | CC(C)(O)c1cc2nn(C3CCS(=O)(=O)CC3)cc2cc1NC(=O)c1cccc(C(F)(F)F)n1 [Example 44, N-[2-(1,1-Dioxidotetrahydro-2H-thiopyran-4-yl)-6-(2-hydroxypropan-2-yl)-2H-indazol-5-yl]-6-(trifluoromethyl)pyridine-2-carboxamide] | 0.17 µM | 14.6 µM | – | – | 18.8 µM | –
5 | COc1cc2nn(C3CCN(C(=O)CO)CC3)cc2cc1NC(=O)c1cccc(C(F)(F)F)n1 [Example 5, N-[2-(1-Glycoloylpiperidin-4-yl)-6-methoxy-2H-indazol-5-yl]-6-(trifluoromethyl)pyridine-2-carboxamide] | 0.21 µM | 5.1 µM | – | – | 15.5 µM | –
6 | COc1cc2nn(C3CC[S+]([O-])CC3)cc2cc1NC(=O)c1cccc(C(F)(F)F)n1 (racemic) [Example 12, rac-N-[6-Methoxy-2-(1-oxidotetrahydro-2H-thiopyran-4-yl)-2H-indazol-5-yl]-6-(trifluoromethyl)pyridine-2-carboxamide] | 0.1 µM | 6.81 µM | – | – | 11.5 µM | –
7 | COc1cc2nn(C3CCS(=N)(=O)CC3)cc2cc1NC(=O)c1cccc(C(F)(F)F)n1 (single isomer, unassigned) [Example 20, N-[2-(1-Imino-1-oxidohexahydro-1λ^4-thiopyran-4-yl)-6-methoxy-2H-indazol-5-yl]-6-(trifluoromethyl)pyridine-2-carboxamide] | – | – | 0.06 µM | 21.8 µM | – | 16.1 µM
8 | COc1cc2nn(C3CCN(C)CC3)cc2cc1NC(=O)c1cccc(C(F)(F)F)n1 [Example 4, N-[6-Methoxy-2-(1-methylpiperidin-4-yl)-2H-indazol-5-yl]-6-(trifluoromethyl)pyridine-2-carboxamide] | 0.14 µM | 7.41 µM | – | – | 4.08 µM | –
9 | COc1cc2nn(C3CCOCC3)cc2cc1NC(=O)c1cccc(N2CCOCC2)n1 [Example 24, N-[6-Methoxy-2-(tetrahydro-2H-pyran-4-yl)-2H-indazol-5-yl]-6-(morpholin-4-yl)pyridine-2-carboxamide] | 0.17 µM | 22.6 µM | – | – | 28.1 µM | –
10 | COc1cc2nn(C3CCN(CCO)CC3)cc2cc1NC(=O)c1cccc(C(F)(F)F)n1 [Example 13, N-{2-[1-(2-Hydroxyethyl)piperidin-4-yl]-6-methoxy-2H-indazol-5-yl}-6-(trifluoromethyl)pyridine-2-carboxamide] | 0.14 µM | 5.1 µM | – | – | 5.85 µM | –

Second part, led by results:

Row | IC50 ([1]; Homo sapiens, THP-1, 17 h) | IC50 ([2]; Homo sapiens) | IC50 ([1]; 17 h) | IC50 [2] | SMILES | IC50 (TMD-8 cells; Homo sapiens, TMD8, 72 h) | IC50 (TMD-8 cells; 72 h)
11 | 0.06 µM | 5.52 µM | – | – | COc1cc2nn([C@@H]3C[C@@H]4C[C@H]3CN4C)cc2cc1NC(=O)c1cccc(C(F)(F)F)n1 (relative stereo) [Example 18, rel-N-{6-Methoxy-2-[(1S,4S,5R)-2-methyl-2-azabicyclo[2.2.1]hept-5-yl]-2H-indazol-5-yl}-6-(trifluoromethyl)pyridine-2-carboxamide] | 3.45 µM | –
12 | 0.23 µM | 3.84 µM | – | – | COc1cc2nn(C3CCOCC3)cc2cc1NC(=O)c1cccc(C(F)F)n1 [Example 23, 6-(Difluoromethyl)-N-[6-methoxy-2-(tetrahydro-2H-pyran-4-yl)-2H-indazol-5-yl]pyridine-2-carboxamide] | 8.52 µM | –
13 | 0.09 µM | 13.4 µM | – | – | CC(C)(O)c1cc2nn(C3CCNCC3)cc2cc1NC(=O)c1cccc(C(F)(F)F)n1 [Example 46, N-[6-(2-Hydroxypropan-2-yl)-2-(piperidin-4-yl)-2H-indazol-5-yl]-6-(trifluoromethyl)pyridine-2-carboxamide] | 14.1 µM | –
14 | – | – | 0.17 µM | 5.19 µM | COc1cc2nn(C3CCS(=N)(=O)CC3)cc2cc1NC(=O)c1cccc(C(F)(F)F)n1 (single isomer, unassigned) [Example 21, N-[2-(1-Imino-1-oxidohexahydro-1λ^4-thiopyran-4-yl)-6-methoxy-2H-indazol-5-yl]-6-(trifluoromethyl)pyridine-2-carboxamide] | 14.8 µM | –
15 | 0.21 µM | 15.6 µM | – | – | COc1cc2nn(C3CCOCC3)cc2cc1NC(=O)c1cccc(C(F)(F)F)n1 [Example 1, N-[6-Methoxy-2-(tetrahydro-2H-pyran-4-yl)-2H-indazol-5-yl]-6-(trifluoromethyl)pyridine-2-carboxamide] | 28.2 µM | –
